Laboratory results published in patent US20120027720A1, “PEPTIDE CONJUGATES” (priority 2008, published 2012).
*1 amine or outer side, *2 acyl side, *3 side chain or, on linkers, in order; H or OH if unused. Where no end group is shown, it is not given here. [ ]: non-standard residue; d: D form. Cys(StBu) = L-S-tert-butylthio-cysteine, CC(C)(C)SSC[C@H](N[*:1])C(=O)[*:2]; Met(O2) = CS(=O)(=O)CC[C@H](N)C(=O)O; AllylGly = C=CC[C@H](N)C(=O)O; hCys = N[C@@H](CCS)C(=O)O; hSer = N[C@@H](CCO)C(=O)O; Nle = CCCC[C@H](N)C(=O)O; Nva = CCC[C@H](N)C(=O)O; Dap = NC[C@H](N)C(=O)O; βAla = NCCC(=O)O

Key:
CaCo2 monolayers [1] = assay: Trans Epithelial Electric Resistance (TEER) across cell monolayer; type: cell-based; design: key to Reduced TEER: + indicates an enhancement of the permeability of the tight junctions were observed; − indicates no enhancement of permeability was observed; conditions: Caco-2 monolayer
Procedure, shortened: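 Caco-2 cells, passage 40-60, grown 21-28 days on Transwell filters, equilibrated 30 min at 37° C in MHBSS pH 7.4. Test compound with Lucifer Yellow applied apically (n=3), incubated at 37° C with 50 RPM shaking; TEER measured at baseline and at 30, 60, 120 and 180 min.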

CaCo2 monolayers [2] = assay: Epithelial flux of Lucifer Yellow through cell monolayer; type: cell-based; design: key to Enhanced LY permeability: + indicates an enhancement of the permeability of the tight junctions were observed; − indicates no enhancement of permeability was observed; conditions: Lucifer Yellow flux, Caco-2 monolayer
Procedure, shortened: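 Caco-2 cells (passage 40-60) grown 21-28 days on Transwell filters, equilibrated 30 min at 37 °C in HBSS-HEPES pH 7.4; Lucifer Yellow with test compound applied apically, n=3 filters. Basolateral samples at 60, 120, 180 min read by fluorescence at 485/535 nm against standard curve; TEER also measured.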

Row | Substance | Reduced TEER (CaCo2 monolayers [1]) | Enhanced LY permeability (CaCo2 monolayers [2])
1 | 160 (F[Dap]IGRL; not fully specified; printed as Phe-Dpr-Ile-Gly-Arg-Leu; also: peptide conjugate) [compound 160] | + | +
2 | 165 (F[dL]IGRL-NH2; also: peptide conjugate) [compound 165] | − | −
3 | 183 (F[AllylGly]IGRL-OH; N-terminus assumed; SMILES C=CC[C@H](NC(=O)[C@@H](N)Cc1ccccc1)C(=O)N[C@H](C(=O)NCC(=O)N[C@@H](CCCNC(=N)N)C(=O)N[C@@H](CC(C)C)C(=O)O)[C@@H](C)CC) [compound 183] | + | +
4 | 205 (F[AllylGly]TGRL-NH2; N-terminus assumed; SMILES C=CC[C@H](NC(=O)[C@@H](N)Cc1ccccc1)C(=O)N[C@H](C(=O)NCC(=O)N[C@@H](CCCNC(=N)N)C(=O)N[C@@H](CC(C)C)C(N)=O)[C@@H](C)O) [compound 205] | − | −
5 | 35 (F[dC]IG[dR]L; not fully specified; printed as Phe-D-Cys-Ile-Gly-D-Arg-Leu) [compound 35] | + | +
6 | 115 (FSIGRL; also: peptide conjugate) [compound 115] | + | +
7 | 121 (FWIGRL; also: peptide conjugate) [compound 121] | + | +
8 | 186 (M[AllylGly]IGRL-NH2; N-terminus assumed; SMILES C=CC[C@H](NC(=O)[C@@H](N)CCSC)C(=O)N[C@H](C(=O)NCC(=O)N[C@@H](CCCNC(=N)N)C(=O)N[C@@H](CC(C)C)C(N)=O)[C@@H](C)CC) [compound 186] | − | −
9 | 1 (FCIGRL; not fully specified) [compound 1] | + | +
10 | 129 (FQIGRL; also: peptide conjugate) [compound 129] | − | −
11 | 20 ([dL][dR]GI[dC][dF]; not fully specified; printed as D-Leu-D-Arg-Gly-Ile-D-Cys-D-Phe) [compound 20] | + | +
12 | 220 (F[AllylGly]ITRL-NH2; N-terminus assumed; SMILES C=CC[C@H](NC(=O)[C@@H](N)Cc1ccccc1)C(=O)N[C@H](C(=O)N[C@H](C(=O)N[C@@H](CCCNC(=N)N)C(=O)N[C@@H](CC(C)C)C(N)=O)[C@@H](C)O)[C@@H](C)CC) [compound 220] | − | −
13 | 126 (FFIGRL-NH2; also: peptide conjugate) [compound 126] | + | +
14 | 210 (F[AllylGly]GGRL-NH2; N-terminus assumed; SMILES C=CC[C@H](NC(=O)[C@@H](N)Cc1ccccc1)C(=O)NCC(=O)NCC(=O)N[C@@H](CCCNC(=N)N)C(=O)N[C@@H](CC(C)C)C(N)=O) [compound 210] | + | +
15 | 146 (H-F[Nva]IGRL-OH; not fully specified; printed as H-Phe-Nva-Ile-Gly-Arg-Leu-OH; also: peptide conjugate, Xaa: 'may be' norvaline) [compound 146] | − | −
16 | 209 (F[AllylGly]VGRL-NH2; N-terminus assumed; SMILES C=CC[C@H](NC(=O)[C@@H](N)Cc1ccccc1)C(=O)N[C@H](C(=O)NCC(=O)N[C@@H](CCCNC(=N)N)C(=O)N[C@@H](CC(C)C)C(N)=O)C(C)C) [compound 209] | − | −
17 | 199 (H[AllylGly]IGRL-NH2; N-terminus assumed; SMILES C=CC[C@H](NC(=O)[C@@H](N)Cc1c[nH]cn1)C(=O)N[C@H](C(=O)NCC(=O)N[C@@H](CCCNC(=N)N)C(=O)N[C@@H](CC(C)C)C(N)=O)[C@@H](C)CC) [compound 199] | − | −
18 | 26 (LRG[dI]CF; not fully specified; printed as Leu-Arg-Gly-D-Ile-Cys-Phe) [compound 26] | + | +
19 | 211 (F[AllylGly]AGRL-NH2; N-terminus assumed; SMILES C=CC[C@H](NC(=O)[C@@H](N)Cc1ccccc1)C(=O)N[C@@H](C)C(=O)NCC(=O)N[C@@H](CCCNC(=N)N)C(=O)N[C@@H](CC(C)C)C(N)=O) [compound 211] | + | +

Row | Substance | Reduced TEER (CaCo2 monolayers [1]) | Enhanced LY permeability (CaCo2 monolayers [2])
20 | 184 (F[AllylGly]IGR-NH2; N-terminus assumed; SMILES C=CC[C@H](NC(=O)[C@@H](N)Cc1ccccc1)C(=O)N[C@H](C(=O)NCC(=O)N[C@@H](CCCNC(=N)N)C(N)=O)[C@@H](C)CC) [compound 184] | − | −
21 | 148 (Ac-F[hSer]IGRA; also: peptide conjugate) [compound 148] | + | +
22 | 96 (H-FCIGR[βAla]-OH; SMILES CC[C@H](C)[C@H](NC(=O)[C@H](CS)NC(=O)[C@@H](N)Cc1ccccc1)C(=O)NCC(=O)N[C@@H](CCCNC(=N)N)C(=O)NCCC(=O)O) [compound 96] | + | +
23 | 139 (FLIGR-NH2; also: peptide conjugate) [compound 139] | − | −
24 | 76 (WCIGRL; not fully specified; printed as Trp-Cys-Ile-Gly-Arg-Leu) [compound 76] | + | +
25 | 200 (P[AllylGly]IGRL-NH2; N-terminus assumed; SMILES C=CC[C@H](NC(=O)[C@@H]1CCCN1)C(=O)N[C@H](C(=O)NCC(=O)N[C@@H](CCCNC(=N)N)C(=O)N[C@@H](CC(C)C)C(N)=O)[C@@H](C)CC) [compound 200] | − | −
26 | 147 (H-F[Nle]IGRL-OH; not fully specified; printed as H-Phe-Nle-Ile-Gly-Arg-Leu-OH; also: peptide conjugate, Xaa: 'may be' L-norleucine) [compound 147] | − | −
27 | 27 (LRGI[dC]F; not fully specified; printed as Leu-Arg-Gly-Ile-D-Cys-Phe) [compound 27] | − | −
28 | 117 (FLIGRL-NH2; also: peptide conjugate) [compound 117] | − | −
29 | 120 (FPIGRL; also: peptide conjugate) [compound 120] | − | −
30 | 21 ([dL]RG[dI][dC][dF]; not fully specified) [compound 21] | − | −
31 | 164 (FL[dI]GRL-NH2; also: peptide conjugate) [compound 164] | − | −
32 | 223 (F[AllylGly]IARL-NH2; N-terminus assumed; SMILES C=CC[C@H](NC(=O)[C@@H](N)Cc1ccccc1)C(=O)N[C@H](C(=O)N[C@@H](C)C(=O)N[C@@H](CCCNC(=N)N)C(=O)N[C@@H](CC(C)C)C(N)=O)[C@@H](C)CC) [compound 223] | + | +
33 | 144 (H-F[Met(O2)]IGRL-OH; not fully specified; also: peptide conjugate, Xaa: 'may be' L-methionine-sulfone) [compound 144] | − | −
34 | 162 (F[hCys]IGRL; also: peptide conjugate, Xaa: 'may be' homocysteine) [compound 162] | + | +
35 | 78 (Ac-ACIGRA; not fully specified; printed as Ac-Ala-Cys-Ile-Gly-Arg-Ala) [compound 78] | − | +
36 | 153 (F[Cys(StBu)]IGRL; also: peptide conjugate, Xaa: 'may be' L-S-tert-butylthio-cysteine) [compound 153] | − | −
37 | 4 (FCAGRL; not fully specified; printed as Phe-Cys-Ala-Gly-Arg-Leu) [compound 4] | − | −
